{"source": "patent US20250160678A1", "about": "“GRAPHENE SENSOR SYSTEMS FOR C[…] ANALYSIS” (VOCxI Health, Inc., priority 2023, published 2025)", "experiment": "elimination curves of cannabinoids after ingestion (FIG. 2)", "format": "in vivo", "details": "time of Test 2 (which may be two hours after cannabinoid ingestion)", "from_the_text": "Referring now to FIG. 1, a chart is shown of elimination curves of various cannabinoids. […] The relative amounts of cannabinoid metabolites (e.g., intermediate or final breakdown products of cannabinoid compounds in the body) will also vary with time after an ingestion event.\nAs previously referenced, the relative amounts of one cannabinoid compound to another and/or metabolites thereof will vary with time after an ingestion event because their different half-lives in the body. As such, a pattern of compounds captured with a system herein at time point that is closer to the time of ingestion will be different than a pattern of compounds captured at a later time. Referring now to FIG. 2, a chart is shown of elimination curves of various cannabinoids. […] In this example, exemplary test times are shown in the form of Test 1, Test 2, and Test 3, with each test being progressively spaced out farther away in time from the time of ingestion. […] Because of this, patterns as identified by systems herein are different at each test time. For example, at the time of Test 1 (which may be a half-hour after cannabinoid ingestion) the amount of CBN is roughly 80 to 90 percent of the amount of THC. In contrast, at the time of Test 2 (which may be two hours after cannabinoid ingestion) the amount of CBN is only about 50 percent of the amount of THC. […]"}
{"smiles": "CCCCCc1cc(O)c2c(c1)OC(C)(C)c1ccc(C)cc1-2", "note": "[CBN, cannabinol]", "values": [{"measurement": "amount of CBN as percent of the amount of THC", "result": "about 50%"}]}
